# According to US20250042941A1, “PEPTIDE HAVING PHYSIOLOGICAL ACTIVITY AND USE THEREOF” (CAREGEN CO., LTD., priority 2021, published 2025):
# Key:
# [1] = system: human adipose-derived mesenchymal stem cells (AD-MSCs); test: Differentiation of mesenchymal stem cells into chondrocytes and ECM production, alcian blue staining; format: cell-based; conditions: peptide 30, 50, 100, 150 μg/ml, day 15, FIG. 5
# Method: Adipose-derived mesenchymal stem cells were treated with the peptide containing the amino acid sequence of SEQ ID NO: 1, and then the effect on chondrogenic differentiation of the stem cells and ECM production was confirmed.
# After removing the medium on day 15, 60 μl of 3.7% formalin was added to the 96-well plate to be stained and fixed for 1 minute. After removing the 3.7% formalin, 70 μl of an alcian blue staining solution (50 ml of 3% acetic acid+0.5 g of 1% Asian blue 8GX, pH 2.5) was added, and incubation was performed at 37° C. for 24 hours. Thereafter, the staining solution was removed, washing with triple distilled water and drying were performed, and then observation was performed with a microscope.
# [2] = system: human C28/12 chondrocyte cell line; test: ECM production in three-dimensional culture of chondrocytes (alginate beads, alcian blue or toluidine blue); format: cell-based; conditions: peptide 100 and 150 μg/ml, day 9, FIG. 4
# Method: Human-derived chondrocytes were treated with the peptide containing the amino acid sequence of SEQ ID NO: 1 in three-dimensional culture, and then it was confirmed whether there was an increase in the formation of glycosaminoglycan, which is an ECM component.
# To this end, 3×10^6 cells of human C28/12 chondrocyte cell line were suspended in 1 ml of an alginate solution (1.25% alginate, 20 mM HEPES, 150 mM Nacl, pH 7.4), and the alginate solution containing the cells were added dropwise to a polymerization solution (100 mM CaCl2), 10 mM HEPES, pH 7.4), thereby preparing beads. The prepared beads were washed twice with DPBS, and then the beads were distributed in a conical tube containing DMEM medium (5% FBS). […] After removing the medium on day 9, 3.7% formaldehyde was added and fixed for 6 hours. Dehydration was performed using a tissue processor (EtOH 70%, 80%, 90%, 100% I, II, xylene I, II in this order for 30 minutes each), and a paraffin block was prepared by embedding. The paraffin block was sectioned on a glass slide to a thickness of […] and then completely dried for 24 hours or longer. The sections were hydrated (Xylene I, II, EtOH 100% I, II, 90%, 80%, 70% in this order for 3 minutes each) and washed three times by being immersed in running water for 10 seconds. […]
# human AD-MSC cells = test: ECM gene expression in mesenchymal stem cells (RT-PCR); format: cell-based; conditions: peptide 50 and 100 μg/ml, days 3, 7, 11, FIGS. 7A to 7C
# Method: Adipose-derived mesenchymal stem cells were treated with the peptide containing the amino acid sequence of SEQ ID NO: 1, and then it was confirmed whether there was an increase in expression of cartilage oligomeric matrix protein (COMP), collagen type 11A (COL 11A), PCP, and ACAN (aggrecan) genes associated with the ECM production.
# After removing the medium on days 3, 7, and 11, cells were harvested and RNA was isolated. After synthesizing cDNA using a cDNA synthesis kit (Intron, Korea), PCR was performed for COMP, COL 11A, PCP, ACAN, and GAPDH genes using PCR pre-mix (Intron, Korea).
# [3] = system: human C28/12 chondrocyte cell line; test: ECM production in chondrocytes, alcian blue staining; format: cell-based; conditions: peptide 30, 50, 100, 150 μg/ml, day 6, FIG. 2
# Method: In order to confirm the cartilage regeneration effect of treatment with the peptide of the present invention containing the amino acid sequence of SEQ ID NO: 1, human-derived chondrocytes were treated with the peptide of SEQ ID NO: 1, and then it was confirmed whether there was an increase in formation of glycosaminoglycan, which is an ECM component.
# After removing the medium on day 6, 60 μl of 3.7% formalin was added to the 96-well plate to be stained and fixed for 1 minute. After removing the 3.7% formalin, 70 μl of an alcian blue staining solution (50 ml of 3% acetic acid+0.5 g of 1% Asian blue 8GX, pH 2.5) was added, and incubation was performed at 37° C. for 24 hours. Thereafter, the staining solution was removed, washing with triple distilled water and drying were performed, and then observation was performed with a microscope.
# [4] = system: mouse RAW264.7 macrophage cell line; test: Inflammatory cytokine mRNA in macrophages induced by inflammation with TNFα (RT-PCR); format: cell-based; conditions: peptide 100 and 150 μg/ml 1 hour, then 20 nM TNF-α 24 hours, FIG. 8
# Method: In addition to the cartilage regenerative activity confirmed in Experimental Examples 1 to 6, in order to confirm the anti-inflammatory effect according to the treatment with the peptide containing the amino acid sequence of SEQ ID NO: 1 of the present invention, mouse RAW264.7 macrophage cell line was treated with TNF to induce inflammation, and the expression levels of TNFα and IL-18, which are inflammatory cytokines, and Cox2 gene, which is an inflammation-inducing marker, were confirmed. The cytokine TNFα was treated to induce inflammation. Since TNFα corresponds to a signal transduction protein related to an inflammatory response, IL-18 corresponds to a cytokine that promotes an inflammatory response, and Cox2 is an inflammation-related protein, a degree of the inflammatory response may be confirmed by measuring the expression levels of TNFα, Cox2, and […] genes. To this end, mouse RAW264.7 cell line was distributed in a 6-well plate at a density of 2×10^5 cells/well and cultured in α-MEM medium containing 10% FBS for 24 hours. The medium was replaced with serum-free α-MEM medium (1% penicillin) and then fasted for 6 hours. […] After 1 hour, the cells were treated with 20 nM TNF-α and incubated for 24 hours. Thereafter, the cells were harvested and RNA was isolated. […]
# NFATc1 protein = NFATc1 protein in RANKL-induced osteoclast differentiation (Western blot); format: cell-based, mouse; conditions: RAW264.7, peptide 50 and 100 μg/ml with RANKL, day 1 of induction, FIG. 11
# Method: Mouse RAW264. […] After removing the medium on day 1 of induction, cells were harvested, a cell lysate was prepared, and Western blot was performed using antibodies (Millipore, USA) against NFATc1 protein.
# [5] = system: human C28/12 chondrocyte cell line; test: ECM gene expression in chondrocytes (RT-PCR); format: cell-based; conditions: peptide 50 and 100 μg/ml, day 9, mRNA, FIG. 3
# Method: Human-derived chondrocytes were treated with the peptide containing the amino acid sequence of SEQ ID NO: 1, and then it was confirmed whether there was an increase in mRNA expression of collagen type II (COL2A1), aggrecan (ACAN), and proteoglycan core protein (PCP), which are ECM components, and GAPDH gene, which is a control.
# To this end, human C28/12 chondrocyte cell line was distributed in a 6-well plate at a density of 8.9×10^4 cells/well and cultured in DMEM medium (cat. 11995-065, Gibco) for 24 hours. […] After removing the medium on day 9, cells were harvested and RNA was isolated. After synthesizing cDNA using a cDNA synthesis kit (Intron, Korea), PCR was performed for collagen type II, ACAN, PCP, and GAPDH genes using PCR pre-mix (Intron, Korea).
# TRAP = conditions: RAW264.7; peptide 10, 30, 50, 100, 150 μg/ml with RANKL; 4 days; absorbance 405 nm; concentration-dependent; FIG. 10C
# Method: Mouse RAW264.7 cell line was distributed in a 96-well plate at a density of 1.7×10^3 cells/well and cultured in DMEM medium for 24 hours. After 24 hours, the peptide of SEQ ID NO: 1 was treated at concentrations of 10, 30, 50, 100, and 150 μg/ml together with RANKL, and then differentiation of osteoclasts was induced for 4 days. The cells were treated with 100 μl of a TRAP activity solution (TRAP buffer (0.1 sodium citrate+15 ml of 50 μM sodium tartrate [pH 5.0])+4-nitrophenly phosphate disodium salt hexahydrate, sigma, 1 tablet mix), incubated at 37° C. for 1 hour, and treated with 10 μl of 2 N NaOH. Absorbance at a wavelength of 405 nm was measured using a plate reader.
# COX2 protein = COX2 protein in macrophages induced by inflammation with TNFα (Western blot); format: cell-based, mouse; conditions: RAW264.7, peptide 100 and 150 μg/ml 1 hour, then 20 nM TNF-α 24 hours, FIG. 9
# Method: In addition to the results of Experimental Example 7, in order to further confirm the anti-inflammatory effect of the treatment with the peptide containing the amino acid sequence of SEQ ID NO: 1 of the present invention, mouse RAW264. 7 macrophage cell line was treated with TNFα to induce inflammation, and the expression level of COX2 protein, which is an inflammation-inducing marker, was confirmed.
# To this end, mouse RAW264.7 cell line was distributed in a 6-well plate at a density of 2×10^5 cells/well and cultured in α-MEM medium containing 10% FBS for 24 hours. The medium was replaced with serum-free α-MEM medium (1% penicillin) and then fasted for 6 hours. […] After 1 hour, the cells were treated with 20 nM TNF-α and incubated for 24 hours. Thereafter, the cells were harvested, a cell lysate was prepared, and then Western blot was performed using antibodies against the COX2 protein (Cell Signaling Technology, USA).
# SOX9 protein = test: Expression of ECM regulator SOX9 in mesenchymal stem cells (Western blot); format: cell-based, human; conditions: AD-MSC, peptide 50 and 100 μg/ml, days 3, 7, 14, FIGS. 6A to 6C
# Method: Adipose-derived mesenchymal stem cells were treated with the peptide containing the amino acid sequence of SEQ ID NO: 1, and then it was confirmed whether there was an increase in expression of SOX9 protein, which is an ECM regulator.
# At this time, as a positive control (CM), a solution containing dexamethasone (100 nM)+ascorbic acid (50 μM)+proline (40 μM)+TGFβ1 (10 ng/ml)+1X ITS was used. After removing the medium on days 3, 7, and 14, cells were harvested, a cell lysate was prepared, and Western blot was performed using antibodies (Millipore, USA) against the SOX9 and SOX5 proteins.
# mouse RAW264.7 cell line [6] = test: Osteoclast differentiation induced by RANKL, TRAP staining; format: cell-based; conditions: peptide 10 to 150 μg/ml with RANKL, 4 days, FIG. 10A
# Method: After removing the medium, the cells were fixed for 30 seconds and washed twice with double distilled water. Staining was performed with 100 μl of a TRAP staining solution (acid phosphatase kit, Sigma aldrich) at 37° C. for 30 minutes. Thereafter, the staining solution was removed, washing with double distilled water three times and drying were performed, and then observation was performed with a microscope.
# mouse RAW264.7 cell line [7] = test: Cytotoxicity / cell proliferation, CCK-8 assay; format: cell-based; conditions: peptide 10, 30, 50, 100, 150 μg/ml, 3 days
# Method: The effect of the peptide of the present invention on cell proliferation was confirmed using CCK-8 assay. CCK-8 reagent is reduced by cellular dehydrogenase to produce a colored product, and the proliferation of cells may be confirmed through a difference in absorbance using this.
# After removing the medium, CCK-8 solution (Dojindo, CCK-8 kit) was diluted 10 times in the culture medium and treated at 100 μl each. During incubation at 37° C., absorbance at a wavelength of 450 nm was measured using a microplate reader at 30-minute intervals.
# [8] = system: mouse RAW264.7 macrophage cell line; test: Actin ring formation in osteoclasts induced by RANKL (immunofluorescence); format: cell-based; conditions: peptide 50 and 100 μg/ml with RANKL, 4 days, FIG. 12
# Method: In addition to the results of Experimental Examples 9 and 10, in order to further confirm the effect of inhibiting osteoclast differentiation according to the treatment with the peptide containing the amino acid sequence of SEQ ID NO: 1 of the present invention, mouse RAW264. […] After removing the medium, the cells were washed three times with cooled PBS and fixed with 4% paraformaldehyde for 30 minutes. The cells were washed three times with cooled PBS for 5 minutes, and then the cells were permeabilized with 0.3% Triton X-100 in PBS for 30 minutes. The cells were washed three times with cooled PBS for 5 minutes, and the cells were blocked with filtered 3% BSA in PBS for 1 hour with stirring. Incubation was performed with primary antibodies (Rhodamin (Red) [Invitrogen™]) diluted to 1:100 with a blocking medium with stirring for 2 hours. The cells were blocked from light and washed three times with PBS for 15 minutes with stirring, DAPI mounting medium (VECTASHIELD® MOUNTING MEDIUM with DAPI) was added, and then each well was covered with a cover slip and observed with a microscope.
sequence,measurement,setting,value
ACDWGLWWLC (peptide having cartilage regeneration activity) [SEQ ID NO: 1],chondrogenic differentiation of adipose-derived mesenchymal stem cells,[1],promoted the chondrogenic differentiation
same,production of glycosaminoglycan (ECM component) in adipose-derived mesenchymal stem cells,[1],promoted
same,formation of glycosaminoglycan (ECM component) in three-dimensional culture of chondrocytes,[2],promoted the formation of glycosaminoglycan
same,expression of ACAN gene,human AD-MSC cells,promoted the expression
same,expression of COL 11A gene,human AD-MSC cells,promoted the expression
same,expression of COMP gene,human AD-MSC cells,promoted the expression
same,expression of PCP gene,human AD-MSC cells,promoted the expression
same,ECM production (glycosaminoglycan formation) in chondrocytes,[3],promoted ECM production
same,"expression of inflammatory cytokine genes (TNFα, IL-1β, Cox2 mRNA)",[4],inhibited the expression of inflammatory cytokine genes
same,production of NFATc1 protein,NFATc1 protein,inhibited the production of NFATc1 protein
same,expression of ACAN (aggrecan) gene,[5],promoted the expression
same,expression of PCP (proteoglycan core protein) gene,[5],promoted the expression
same,expression of collagen type II (COL2A1) gene,[5],promoted the expression
same,activity of TRAP (marker of osteoclasts),TRAP,inhibited the activity of TRAP
same,increase in inflammatory proteins (COX2 protein),COX2 protein,inhibited the increase in inflammatory proteins
same,production of SOX9 protein (ECM regulator),SOX9 protein,increased production of SOX9 protein
same,differentiation into osteoclasts induced by RANKL,mouse RAW264.7 cell line [6],inhibited the differentiation into osteoclasts
same,toxicity to mouse macrophages,"mouse RAW264.7 cell line [7]; CCK-8, FIG. 10B",not toxic
same,CCK-8 absorbance at 450 nm (cell proliferation) versus untreated,mouse RAW264.7 cell line [7]; FIG. 10B,the absorbance was higher
same,formation of actin rings,[8],inhibited the formation of actin rings
